Source: patent US20260137662A1, “CD11B AGONISTS FOR TREATMENT OF AUTOIMMUNE DISEASE” (Rush University Medical Center, priority 2022, published 2026)

Tests used:
TLR4 mediated pathways = assay: Relative gene expression in myeloid cells stimulated with LPS; type: cell-based; conditions: LPS (50ng/ml) and LA1 (20 uM) co-treatment, 4 hour
Method: FIG. 4A illustrates the relative gene expression of biomarker IL-1bin myeloid cells after 4 hour of treatment with vehicle DMSO (UT), LA1 (20 uM), LPS (50ng/ml), or LPS and LA1 co-treatment.
FIG. 4B illustrates the relative gene expression of biomarker IL-18 in myeloid cells after 4 hour of treatment with vehicle DMSO (UT), LA1 (20 uM), LPS (50ng/ml), or LPS and LA1 co-treatment.
FIG. 4C illustrates the relative gene expression of biomarker uPAR in myeloid cells after 4 hour of treatment with vehicle DMSO (UT), LA1 (20 uM), LPS (50ng/ml), or LPS and LA1 co-treatment.
FIG. 4D illustrates the relative gene expression of biomarker IL-6 in myeloid cells after 4 hour of treatment with vehicle DMSO (UT), LA1 (20 uM), LPS (50ng/ml), or LPS and LA1 co-treatment.
The impact of CD11b activation by LA1 on TLR4 mediated pathways was similarly assessed by stimulating myeloid cells with LPS, a known TLR4 stimulant, and co-treating with LA1.

[1] = tested on: TLR7 mediated pro-inflammatory biomarkers; assay: Secretion of pro-inflammatory biomarkers from myeloid cells stimulated with imiquimod (ELISA); type: cell-based; conditions: IMQ (20 ug/mL) and LA1 (20 uM) co-treatment, 4 hours
Method: FIG. 5A illustrates the levels of biomarker IL-1b secretion in myeloid cells after 4 hours of treatment with vehicle DMSO (UT), LA1 (20 uM), Imiquimod (IMQ) (20 ug/mL), or IMQ and LA1 co-treatment. Bars show mean with SD (N=3) (*P<0.05, **P<0.01, ***P<0.001, ***P<0.0001).
FIG. 5B illustrates the levels of biomarker suPAR secretion in myeloid cells after 4 hours of treatment with vehicle DMSO (UT), LA1 (20 uM), Imiquimod (IMQ) (20 ug/mL), or IMQ and LA1 co-treatment. Bars show mean with SD (N=3) (*P<0.05, **P<0.01, ***P<0.001, ***P<0.0001).
FIG. 5C illustrates the levels of biomarker IL-6 secretion in myeloid cells after 4 hours of treatment with vehicle DMSO (UT), LA1 (20 uM), Imiquimod (IMQ) (20 ug/mL), or IMQ and LA1 co-treatment. Bars show mean with SD (N=3) (*P<0.05, **P<0.01, ***P<0.001, ***P<0.0001).
FIG. 5D illustrates the levels of biomarker TNFalpha secretion in myeloid cells after 4 hours of treatment with vehicle DMSO (UT), LA1 (20 uM), Imiquimod (IMQ) (20 ug/mL), or IMQ and LA1 co-treatment.
FIG. 5E illustrates the levels of biomarker IFN-b secretion in myeloid cells after 4 hours of treatment with vehicle DMSO (UT), LA1 (20 uM), Imiquimod (IMQ) (20 ug/mL), or IMQ and LA1 co-treatment. Bars show mean with SD (N=3) (*P<0.05, **P<0.01, ***P<0.001, ****P<0.0001).
The concentration of TLR7 mediated pro-inflammatory biomarkers in untreated myeloid cells, myeloid cells treated with LA1, myeloid cells treated with IMQ, and myeloid cells co-treated with IMQ and LA1 was assessed by ELISA.

[2] = tested on: LPS-treated wild type C57BL/6 mice; assay: Serum IL-6 in LPS-treated mice, oral LA1 dose response; type: in vivo; conditions: 4 hours
Method: FIG. 11 illustrates the concentration of biomarker IL-6 in wild type mice and wild type mice co-treated with various dose amounts of LPS and LA1 (0, 2, 10, 30, or 60 mg/kg). Each dot represents a unique sample. Bars show mean +/−SEM (n=4).
Administration of LPS to wild type C57BL/6 mice (WT) results in rapid elevation of pro-inflammatory mediators, such as IL-6, in murine sera. WT mice treated with LPS were used to study the dose-responsive efficacy of LA1 in reducing inflammatory cytokine levels in vivo. A single dose of LA 1 was orally administered to mice co-administered LPS. After 4 hours, sera was collected and used for ELISA.

TLR7 mediated pathways = assay: Relative gene expression (RT-PCR) in myeloid cells stimulated with imiquimod; type: cell-based; conditions: IMQ (20 ug/mL) and LA1 (20 uM) co-treatment, 4 hours
Method: FIG. 3A illustrates transcriptional levels of biomarker IL-1b in myeloid cells after 4 hours of treatment with vehicle DMSO (UT), LA1 (20 uM), imiquimod (IMQ) (20 ug/mL), or IMQ and LA1 co-treatment. Bars show mean with SD (N=3) (*P<0.05, **P<0.01, ***P<0.001, ***P<0.0001).
FIG. 3B illustrates transcriptional levels of biomarker uPAR in myeloid cells after 4 hours of treatment with vehicle DMSO (UT), LA1 (20 uM), imiquimod (IMQ) (20 ug/mL), or IMQ and LA1 co-treatment. Bars show mean with SD (N=3) (*P<0.05, **P<0.01, ***P<0.001, ***P<0.0001).
FIG. 3C illustrates transcriptional levels of biomarker IL-6 in myeloid cells after 4 hours of treatment with vehicle DMSO (UT), LA1 (20 uM), imiquimod (IMQ) (20 ug/mL), or IMQ and LA1 co-treatment. Bars show mean with SD (N=3) (*P<0.05, **P<0.01, ***P<0.001, ***P<0.0001).
FIG. 3D illustrates transcriptional levels of biomarker NLRP3 in myeloid cells after 4 hours of treatment with vehicle DMSO (UT), LA1 (20 uM), imiquimod (IMQ) (20 ug/mL), or IMQ and LA1 co-treatment. Bars show mean with SD (N=3) (*P<0.05, **P<0.01, ***P<0.001, ***P<0.0001).
The impact of CD11b activation by LA1 on TLR7 mediated pathways was assessed by treating myeloid cells with imiquimod (IMQ), a known TLR7 stimulant, and co-treating myeloid cells with IMQ and LA1. Relative gene expression of various biomarkers was assessed by RT-PCR.

## O=C(O)c1ccc(-c2ccc(/C=C3\SC(=S)N(Cc4ccccc4)C3=O)o2)cc1 [LA1, (Z)-4-(5-((3-benzyl-4-oxo-2-thioxothiazolidin-5-ylidene)methyl)furan-2-yl)benzoic acid]
TLR4 mediated pathways
  expression of biomarker IL-1b: significantly decreased
  expression of biomarker IL-6: significantly decreased
  expression of biomarker IL-18: significantly decreased
  expression of biomarker uPAR: significantly decreased
[1]
  TLR7-dependent increase in IL-1b level (ELISA): significantly reduced
  TLR7-dependent increase in IL-6 level (ELISA): significantly reduced
  TLR7-dependent increase in TNF-a level (ELISA): significantly reduced
  TLR7-dependent increase in uPAR level (ELISA): significantly reduced
[2]; LA1 30 mg/kg oral
  serum IL-6 levels versus non-LPS injected WT control: no difference
[2]; LA1 60 mg/kg oral
  serum IL-6 levels versus non-LPS injected WT control: no difference
[2]; single oral dose of LA1 (2, 10, 30, 60 mg/kg) co-administered with LPS, dose dependent
  IL-6 levels in murine sera: significantly reduced
TLR7 mediated pathways
  TLR7-dependent increase in IL-1b expression level: significantly reduced
  TLR7-dependent increase in IL-6 expression level: significantly reduced
  TLR7-dependent increase in NLRP3 expression level: significantly reduced
  TLR7-dependent increase in uPAR expression level: significantly reduced
